Assay results as given in patent EP4112046A1, “PHARMACEUTICAL COMPOSITION AND USE THEREOF” (Alphala Co., Ltd., priority 2021, dated 2023).

Test: Solubility in buffers or solutions, LC-MS/MS
Type: physicochemical
Conditions: 3 mg/mL, 37°C, 24 hrs
Experimental: The test formulation was added into indicated buffers or solutions (ddH2O or 0.9% saline, pH 7.4) to the final concentration of 3 mg/mL, followed by sonicating for 30 mins. Next, the mixture was put into 37°C water bath for 24 hrs. The mixture was mixed well by vortex and 1 mL of mixture was transferred into the 1.5 mL eppendorf tube, followed by centrifuging at 20817 xg for 30 mins. 10 µL of the supernatant was collected, and the concentration of the collected supernatant was determined by LC-MS/MS.

## CCOC(=O)CCNC(=O)c1ccc(N[C@H](c2ccc(-c3nnc(-c4ccccc4)o3)cc2)C(C)C)cc1 [ALP001E]
H2O (pH7.0)
  Solubility (mg/ml): < LOQ
Saline (pH7.4)
  Solubility (mg/ml): < LOQ
